Data published in the NIST ThermoML archive (doi:10.1016/j.tca.2006.05.019).

Conditions: 101.33 kPa, Crystal, Vacuum adiabatic calorimetry

O=P([O-])([O-])[O-].[Lu+3] [lutetium phosphate]
Conditions | molar entropy [J/K/mol]
6 K | 0.012
8 K | 0.0284
10 K | 0.0553
12 K | 0.095
14 K | 0.152
16 K | 0.226
18 K | 0.322
20 K | 0.441
25 K | 0.858
30 K | 1.47
35 K | 2.28
40 K | 3.29
45 K | 4.48
50 K | 5.82
55 K | 7.3
60 K | 8.89
65 K | 10.58
70 K | 12.33
75 K | 14.15
80 K | 16.02
85 K | 17.93
90 K | 19.88
95 K | 21.85
100 K | 23.84
110 K | 27.89
120 K | 31.97
130 K | 36.07
140 K | 40.18
150 K | 44.27
160 K | 48.34
170 K | 52.38
180 K | 56.34
190 K | 60.33
200 K | 64.24
210 K | 68.09
220 K | 71.89
230 K | 75.64
240 K | 79.34
250 K | 82.98
260 K | 86.56
270 K | 90.09
280 K | 93.57
290 K | 96.99
300 K | 100.4
310 K | 103.7
320 K | 106.9
